# From publication PMC5116814, “Potent, Reversible, and Specific Chemical Inhibitors of Eukaryotic Ribosome Biogenesis” (Cell, 2016)
# Tests used:
# Assay type in all cases: biochemical
# [1] = biological target: T1, Mdn1 (Midasin) (Schizosaccharomyces pombe, UniProt O94248); assay: ATP hydrolysis by purified enzyme (radioactive and NADH-coupled ATPase assays)
# T1 construct: recombinant full-length Mdn1 (hexahistidine-tagged, insect cells)
# [2] = biological target: T1, Mdn1 (Midasin); assay: NADH-coupled and radioactive ATPase assays
# [3] = biological target: T1, Mdn1 (Midasin); assay: NADH-coupled steady-state ATPase assay, dose-response (saturates at […] inhibition)
# T1 sequence (O94248 whole entry): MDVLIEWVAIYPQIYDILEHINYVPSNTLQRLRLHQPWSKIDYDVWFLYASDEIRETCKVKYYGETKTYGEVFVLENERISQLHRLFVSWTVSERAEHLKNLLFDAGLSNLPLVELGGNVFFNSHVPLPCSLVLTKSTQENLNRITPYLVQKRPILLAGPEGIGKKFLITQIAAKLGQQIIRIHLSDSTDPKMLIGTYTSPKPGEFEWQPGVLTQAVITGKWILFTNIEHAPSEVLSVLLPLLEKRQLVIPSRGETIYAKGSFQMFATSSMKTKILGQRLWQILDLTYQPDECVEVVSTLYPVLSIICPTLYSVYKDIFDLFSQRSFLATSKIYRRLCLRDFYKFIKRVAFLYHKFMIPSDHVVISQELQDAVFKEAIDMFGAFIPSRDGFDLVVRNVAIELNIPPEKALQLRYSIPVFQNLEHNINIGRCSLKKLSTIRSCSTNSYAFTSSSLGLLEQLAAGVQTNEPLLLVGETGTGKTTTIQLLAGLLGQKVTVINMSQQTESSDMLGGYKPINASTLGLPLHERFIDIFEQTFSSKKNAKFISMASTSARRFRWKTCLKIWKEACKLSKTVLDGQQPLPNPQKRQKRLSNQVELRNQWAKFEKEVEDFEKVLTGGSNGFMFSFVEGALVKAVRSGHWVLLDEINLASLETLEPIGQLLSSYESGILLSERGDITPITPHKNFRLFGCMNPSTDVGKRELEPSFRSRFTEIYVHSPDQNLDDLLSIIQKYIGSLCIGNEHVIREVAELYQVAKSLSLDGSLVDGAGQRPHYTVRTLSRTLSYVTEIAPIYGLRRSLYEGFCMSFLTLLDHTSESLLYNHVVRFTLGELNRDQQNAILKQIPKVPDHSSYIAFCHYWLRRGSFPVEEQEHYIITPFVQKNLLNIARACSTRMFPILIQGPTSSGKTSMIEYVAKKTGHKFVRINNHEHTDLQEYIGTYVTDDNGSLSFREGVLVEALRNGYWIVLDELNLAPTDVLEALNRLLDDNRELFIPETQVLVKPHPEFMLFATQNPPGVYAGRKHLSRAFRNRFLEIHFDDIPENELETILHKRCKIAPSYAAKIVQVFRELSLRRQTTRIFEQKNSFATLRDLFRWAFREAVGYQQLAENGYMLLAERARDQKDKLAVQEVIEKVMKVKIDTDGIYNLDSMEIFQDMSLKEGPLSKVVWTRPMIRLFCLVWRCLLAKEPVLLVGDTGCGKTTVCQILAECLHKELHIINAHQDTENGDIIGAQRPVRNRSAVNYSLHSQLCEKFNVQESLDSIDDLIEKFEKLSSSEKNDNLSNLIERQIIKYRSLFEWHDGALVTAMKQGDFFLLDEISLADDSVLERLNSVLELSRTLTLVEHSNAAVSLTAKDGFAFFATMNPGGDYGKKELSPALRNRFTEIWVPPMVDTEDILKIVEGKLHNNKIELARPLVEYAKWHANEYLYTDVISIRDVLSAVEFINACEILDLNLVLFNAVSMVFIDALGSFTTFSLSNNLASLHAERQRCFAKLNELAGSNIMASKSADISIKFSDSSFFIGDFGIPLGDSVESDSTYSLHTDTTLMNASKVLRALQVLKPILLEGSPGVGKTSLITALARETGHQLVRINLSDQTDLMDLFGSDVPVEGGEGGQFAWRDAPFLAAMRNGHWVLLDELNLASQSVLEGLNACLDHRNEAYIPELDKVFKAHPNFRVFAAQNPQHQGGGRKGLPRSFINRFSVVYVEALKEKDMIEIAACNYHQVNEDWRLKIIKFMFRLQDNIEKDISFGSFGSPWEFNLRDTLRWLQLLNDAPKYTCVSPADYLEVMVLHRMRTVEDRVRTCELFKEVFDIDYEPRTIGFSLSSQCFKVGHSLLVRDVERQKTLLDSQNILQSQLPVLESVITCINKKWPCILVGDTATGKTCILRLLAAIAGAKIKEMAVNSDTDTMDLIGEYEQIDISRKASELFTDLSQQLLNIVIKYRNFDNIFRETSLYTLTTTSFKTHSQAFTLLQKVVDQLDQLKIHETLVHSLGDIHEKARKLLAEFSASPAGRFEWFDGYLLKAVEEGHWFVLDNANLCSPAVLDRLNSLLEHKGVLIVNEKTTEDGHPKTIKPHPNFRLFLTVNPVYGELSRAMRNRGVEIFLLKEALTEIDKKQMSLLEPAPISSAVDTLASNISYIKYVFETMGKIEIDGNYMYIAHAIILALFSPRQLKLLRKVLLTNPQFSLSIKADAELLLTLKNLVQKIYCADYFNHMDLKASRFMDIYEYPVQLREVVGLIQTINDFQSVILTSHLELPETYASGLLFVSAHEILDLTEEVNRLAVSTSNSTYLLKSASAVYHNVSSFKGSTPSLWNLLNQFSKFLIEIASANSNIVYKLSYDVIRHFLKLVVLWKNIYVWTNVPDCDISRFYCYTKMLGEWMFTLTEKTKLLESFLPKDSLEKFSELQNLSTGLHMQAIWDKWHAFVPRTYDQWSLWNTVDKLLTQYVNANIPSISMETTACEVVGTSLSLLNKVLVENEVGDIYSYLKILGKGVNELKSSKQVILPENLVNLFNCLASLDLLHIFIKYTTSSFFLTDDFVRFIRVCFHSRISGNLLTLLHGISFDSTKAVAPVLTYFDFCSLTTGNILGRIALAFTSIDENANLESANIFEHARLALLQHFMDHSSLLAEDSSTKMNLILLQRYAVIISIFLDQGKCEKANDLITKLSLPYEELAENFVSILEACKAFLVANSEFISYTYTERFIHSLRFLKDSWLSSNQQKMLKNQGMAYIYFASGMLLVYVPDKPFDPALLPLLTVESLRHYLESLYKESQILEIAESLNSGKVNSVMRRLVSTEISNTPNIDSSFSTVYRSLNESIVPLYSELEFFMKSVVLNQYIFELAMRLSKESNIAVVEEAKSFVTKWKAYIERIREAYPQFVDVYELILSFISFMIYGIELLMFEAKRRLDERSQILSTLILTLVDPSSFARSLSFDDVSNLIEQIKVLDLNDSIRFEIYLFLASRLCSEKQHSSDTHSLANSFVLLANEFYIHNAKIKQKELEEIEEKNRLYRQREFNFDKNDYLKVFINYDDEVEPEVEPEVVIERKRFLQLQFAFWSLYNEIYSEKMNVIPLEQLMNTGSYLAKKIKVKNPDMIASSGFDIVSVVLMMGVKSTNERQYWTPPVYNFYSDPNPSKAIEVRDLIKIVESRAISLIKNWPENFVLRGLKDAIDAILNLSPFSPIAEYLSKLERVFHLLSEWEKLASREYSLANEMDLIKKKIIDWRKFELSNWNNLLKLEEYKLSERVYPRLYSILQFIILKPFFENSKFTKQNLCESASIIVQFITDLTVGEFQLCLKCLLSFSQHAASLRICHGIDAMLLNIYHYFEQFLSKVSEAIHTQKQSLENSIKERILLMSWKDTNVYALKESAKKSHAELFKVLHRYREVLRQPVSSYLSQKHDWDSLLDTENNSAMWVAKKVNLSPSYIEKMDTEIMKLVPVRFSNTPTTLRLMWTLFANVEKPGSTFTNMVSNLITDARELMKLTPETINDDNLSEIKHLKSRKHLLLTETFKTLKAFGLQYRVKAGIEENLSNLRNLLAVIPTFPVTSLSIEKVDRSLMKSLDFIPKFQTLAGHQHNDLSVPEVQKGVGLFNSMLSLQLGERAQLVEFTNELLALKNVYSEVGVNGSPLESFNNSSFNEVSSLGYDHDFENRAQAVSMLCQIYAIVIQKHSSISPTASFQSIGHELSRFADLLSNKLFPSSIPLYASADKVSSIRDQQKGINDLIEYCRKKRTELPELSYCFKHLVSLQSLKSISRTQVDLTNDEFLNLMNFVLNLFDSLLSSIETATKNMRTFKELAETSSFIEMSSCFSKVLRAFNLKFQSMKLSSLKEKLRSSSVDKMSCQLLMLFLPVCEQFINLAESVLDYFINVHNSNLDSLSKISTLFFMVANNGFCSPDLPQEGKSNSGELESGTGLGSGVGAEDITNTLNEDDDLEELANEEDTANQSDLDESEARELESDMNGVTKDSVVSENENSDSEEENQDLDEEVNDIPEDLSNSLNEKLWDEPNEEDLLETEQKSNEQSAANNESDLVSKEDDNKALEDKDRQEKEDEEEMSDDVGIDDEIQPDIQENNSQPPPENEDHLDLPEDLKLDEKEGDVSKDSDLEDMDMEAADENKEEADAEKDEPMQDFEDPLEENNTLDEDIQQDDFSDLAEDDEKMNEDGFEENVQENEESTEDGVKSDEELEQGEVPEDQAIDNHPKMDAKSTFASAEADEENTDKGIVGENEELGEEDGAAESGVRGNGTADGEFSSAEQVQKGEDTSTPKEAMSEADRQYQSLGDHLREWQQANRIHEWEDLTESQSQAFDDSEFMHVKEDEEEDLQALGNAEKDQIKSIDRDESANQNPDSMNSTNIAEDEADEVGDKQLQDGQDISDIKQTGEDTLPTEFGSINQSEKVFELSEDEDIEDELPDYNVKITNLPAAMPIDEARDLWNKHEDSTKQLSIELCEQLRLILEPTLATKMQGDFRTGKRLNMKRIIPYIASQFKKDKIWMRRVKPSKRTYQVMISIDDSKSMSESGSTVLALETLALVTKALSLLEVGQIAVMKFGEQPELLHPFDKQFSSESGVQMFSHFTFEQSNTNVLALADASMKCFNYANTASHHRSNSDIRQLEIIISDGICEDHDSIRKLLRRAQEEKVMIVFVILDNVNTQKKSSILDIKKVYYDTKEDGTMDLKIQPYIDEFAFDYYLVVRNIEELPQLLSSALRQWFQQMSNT
smiles,measurement,setting,value
Nc1ncnc2c1ncn2[C@@H]1O[C@H](COP(=O)(O)OP(=O)(O)OP(=O)(O)O)[C@@H](O)[C@H]1O [ATP],ATP hydrolysis by purified enzyme (radioactive and NADH-coupled ATPase assays),[1],~ 1.0 s^–1 (specific activity at 1 mM MgATP)
"C=C(C)CSc1nnc2c(n1)[nH]c1ccccc12 [compound 1, Rbin-1]",inhibition at 1 µM,[2],~40%
"C=C(C)CSc1nnc2c(n1)[nH]c1cc(Br)ccc12 [compound 15, Rbin-2]",EC50,[3],~300 nM
